The source of these data is ChEMBL document CHEMBL5360530, “Structure activity relationship (SAR) and anticancer activity of pyrrolidine derivatives: Recent developments and future prospects (A review)” (Eur J Med Chem, 2023).

Molecules are shown by their SMILES. Converted amounts (≈) assume the structure as drawn. Square brackets hold non-standard residues; d marks the D form. Peptide text beside a SMILES is read from it. * marks the point of attachment. ξ: configuration not given here. X2 = CC[C@H](C)[C@@H](CN[C@@H](Cc1ccccc1)C(=O)OC)N*; X1 = O=C(OC(C(F)(F)F)C(F)(F)F)*; ξP = O=C(O)C1CCCN1 Bounds are passed on as bounds.

Series [1] relates to HCT-116. Put plainly: Anticancer activity against human HCT-116 cells assessed as cell growth inhibition measured after 48 hrs by MTT assay. The following applies: HCT-116, 48 h. Type of series: functional, cell-based.
For series [2], the system named is HT-29. Put plainly: Anticancer activity against human HT-29 cells assessed as cell growth inhibition measured after 48 hrs by MTT assay. Type of series: functional, cell-based. The following applies: HT-29, 48 h.
Series [3] is described as follows: Cytotoxicity against human Adipose tissue derived mesenchymal stem cell assessed as cell growth inhibition measured after 48 hrs by MTT assay. The following applies: adipose tissue derived mesenchymal stem cells. Type of series: toxicity, cell-based.
The subject of series [4] is A549. The series can be described thus: Anticancer activity against human A549 cells assessed as cell growth inhibition measured after 72 hrs by CCK-8 assay. Type of series: functional, cell-based. The following applies: A549, 72 h.
For series [5], the system named is HCT-116. Put plainly: Anticancer activity against human HCT-116 cells assessed as cell growth inhibition measured after 72 hrs by CCK-8 assay. The class given is functional, cell-based. The note with it: HCT-116, 72 h.
For series [6], the system named is MDA-MB-231. The series can be described thus: Anticancer activity against human MDA-MB-231 cells assessed as cell growth inhibition measured after 72 hrs by CCK-8 assay. The class given is functional, cell-based. The following applies: MDA-MB-231, 72 h.
Series [7] deals with SH-SY5Y. Put plainly: Anticancer activity against human SH-SY5Y cells assessed as cell death upto 1000 ug/ml measured upto 72 hrs by MTT assay relative to control. Type of series: functional. The note with it: dose <= 1000 µg/ml, up to 1000 µg/mL.
The test system of series [8] is HT-29. Put plainly: Anticancer activity against human HT-29 cells assessed as cell death upto 1000 ug/ml measured upto 72 hrs by MTT assay relative to control. The class given is functional. The note with it: dose <= 1000 µg/ml, up to 1000 µg/mL.
The subject of series [9] is P388. Put plainly: Anticancer activity against P388 cells assessed as cell growth inhibition. The class given is functional, cell-based. The note with it: Mus musculus.
The test system of series [10] is MCF7. Put plainly: Anticancer activity against human MCF7 cells assessed as cell growth inhibition at 50 uM measured after 48 hrs by MTT assay relative to control. The class given is functional.
Series [11] has as its system COS-7. The series can be described thus: Anticancer activity against COS-7 cells assessed as cell growth inhibition at 50 uM measured after 48 hrs by MTT assay relative to control. Type of series: functional. The following applies: Chlorocebus aethiops.
In series [12] the test system is A549. The series can be described thus: Anticancer activity against human A549 cells assessed as cell growth inhibition measured after 24 hrs by MTT assay. The following applies: A549, 24 h. Type of series: functional, cell-based.
Series [13] relates to A549. The series can be described thus: Anticancer activity against human A549 cells assessed as cell growth inhibition by MTT assay. The class given is functional, cell-based.
The test system of series [14] is Jurkat. The series can be described thus: Anticancer activity against human Jurkat cells assessed as cell growth inhibition measured after 48 hrs by MTT assay. The class given is functional, cell-based.
The subject of series [15] is MCF7. Put plainly: Anticancer activity against human MCF7 cells assessed as cell growth inhibition by MTT assay. Type of series: functional, cell-based.
In series [16] the test system is MCF7. The series can be described thus: Anticancer activity against human MCF7 cells assessed as cell growth inhibition measured after 48 hrs by WST-1 assay. Type of series: functional, cell-based. The note with it: MCF7, 48 h.
Series [17] has as its system K562. The series can be described thus: Anticancer activity against human K562 cells assessed as cell growth inhibition measured after 48 hrs by WST-1 assay. Type of series: functional, cell-based. The note with it: K562, 48 h.
Series [18] deals with MCF7. Put plainly: Anticancer activity against human MCF7 cells assessed as cell growth inhibition measured after 48 hrs by MTT assay. The following applies: MCF7, 48 h. The class given is functional, cell-based.
Series [19] has as its system K562. Put plainly: Anticancer activity against human K562 cells assessed as cell growth inhibition measured after 48 hrs by MTT assay. The following applies: K562, 48 h. The class given is functional, cell-based.
Series [20] relates to HT-29. The series can be described thus: Anticancer activity against human HT-29 cells xenografted with BALB/c mouse assessed as tumor growth inhibition at 50 mg/kg, iv measured twice daily for 20 days relative to control. The class given is functional. The note with it: HT-29, 480 h, time 20 day, read-out: TGI.
Series [21] relates to HT-29. The series can be described thus: Anticancer activity against human HT-29 cells xenografted with BALB/c mouse assessed as tumor growth inhibition at 50 mg/kg, po measured twice daily for 20 days relative to control. Type of series: functional. The note with it: HT-29, 480 h, time 20 day, read-out: TGI.
Series [22] relates to M-HeLa. The series can be described thus: Anticancer activity against human HelaM cells assessed as cell growth inhibition measured after 24 hrs by DAPI and propidium iodide staining based assay. The class given is functional.
Series [23] is described as follows: Cytotoxicity against human Chang liver cells assessed as cell growth inhibition measured after 24 hrs by DAPI and propidium iodide staining based assay. The class given is toxicity.
Series [24] concerns M-HeLa. Put plainly: Induction of apoptosis in human HelaM cells upto 100 uM measured after 24 hrs relative to control. Type of series: functional. The following applies: up to 100 µM.
Series [25] concerns A549. The series can be described thus: Anticancer activity against human A549 cells assessed as cell viability at 100 ug/ml measured after 24 hrs by MTT assay relative to control. The class given is functional. The following applies: read-out: Activity.
Series [26] has as its system A549. The series can be described thus: Anticancer activity against human A549 cells assessed as cell viability at 50 ug/ml measured after 24 hrs by MTT assay relative to control. The class given is functional. The note with it: read-out: Activity.
In series [27] the test system is A549. The series can be described thus: Anticancer activity against human A549 cells assessed as cell viability measured after 24 hrs by MTT assay. Type of series: functional, cell-based. The note with it: A549, 24 h.
Series [28] relates to HeLa. The series can be described thus: Anticancer activity against human HeLa cells assessed as cell growth inhibition measured after 48 hrs by MTT assay. The class given is functional, cell-based.
Series [29] deals with MCF7. Put plainly: Anticancer activity against human MCF7 cells assessed as cell growth inhibition measured after 24 hrs by SRB assay. The following applies: MCF7, 24 h. The class given is functional, cell-based.
The test system of series [30] is HCT-116. The series can be described thus: Anticancer activity against human HCT-116 cells assessed as cell growth inhibition measured after 24 hrs by SRB assay. Type of series: functional, cell-based. The note with it: HCT-116, 24 h.
For series [31], the system named is HepG2. The series can be described thus: Anticancer activity against human HepG2 cells assessed as cell growth inhibition measured after 24 hrs by SRB assay. The note with it: HepG2, 24 h. Type of series: functional, cell-based.
Series [32] concerns HT-29. Put plainly: Anticancer activity against human HT-29 cells assessed as cell growth inhibition measured after 24 hrs by MTT assay. The class given is functional, cell-based. The following applies: HT-29, 24 h.

On to `O=C1CCC(=O)N1c1ccc(O)cc1`, for which the IC50 in [1] was determined as 1.74 µM; in [2], 1.03 µM. The IC50 at 48 h in [3] was determined as 1.32 µM.

Regarding `OC(CN1CCCCC1)Cn1c2ccc(Cl)cc2c2cc(Cl)ccc21` (stereo unspecified), the 50% inhibitory concentration (IC50) in series [4], in [5] and in [6] was 6 µM throughout.

As for `CCn1c2ccccc2c2cc(NC(=O)CCN3CCCC3)ccc21`, the Activity was 61% in series [7] and 66% in series [8].

With `O=C(/C=C/c1ccc(O)cc1)N1CCCC1`, in [9], the IC50 worked out at 11.3 µg/mL (≈ 52.2 µM).

Take `CCCCNCC(O)Cn1c2ccc(Cl)cc2c2cc(Cl)ccc21` (stereo unspecified): the half-maximal inhibitory concentration (IC50) in [4] came to 6 µM; in [5] it was 6.5 µM; in [6], 7.5 µM.

As for `O=C1Nc2ccccc2C12CCNC2c1ccccc1` (stereo unspecified), the values for the inhibition at 50 µM in series [10] and in series [11] were 25.2% and 0.51%, respectively.

Turning to `COc1ccc([C@@H]2[C@H]([N+](=O)[O-])[C@H](Cc3ccc(O)cc3)NC23C(=O)c2cccc4cccc3c24)cc1` (stereo partly specified), the IC50 in [12] amounted to 96.5 µM.

Consider `CCOC(=O)[C@H]1CCCN1C(=O)Cc1noc2ccccc12`, for which the IC50 in series [13] is 361 µM.

Take `O=C1C2=CC=CC3C=CC=C(C23)C12N[C@@H](Cc1ccc(O)cc1)[C@@H]([N+](=O)[O-])[C@H]2c1ccc(Br)cc1` (stereo partly specified): the IC50 in [12] was 65.7 µM; in series [14] it was 33.1 µM.

Consider `N#C[C@@H]1CCCN1C(=O)Cc1noc2ccccc12`, for which the values for the IC50 in series [13] and in series [15] were 90.3 µM and 2.36 µM, respectively.

As to `COc1ccc(/C=C2\CCC[C@@]3(C2=O)[C@@H](c2ccc(OC)cc2)[C@@H]2CSCN2[C@]32C(=O)Nc3ccccc32)cc1`, the IC50 in series [16] amounted to 24.4 µM; in series [17] it was 14.7 µM.

Regarding `Cc1ccc(C2CC(c3ccc(F)cc3)=NN2C(=O)CN2C(=O)CCC2=O)cc1` (stereo unspecified), the IC50 was 0.07 µM in series [18], 0.92 µM in series [2] and 47.2 µM in series [19]. Also, the inhibition in vivo at 50 mg/kg is 66% in series [20] and 60% in [21].

Regarding `NC(=O)[C@@H]1CCCN1C(=O)Cc1noc2ccccc12`, the IC50 in [13] came out at 4.72 µM; in series [15], 4.39 µM.

For `O=C1/C(=C/c2cccc(F)c2)CCC[C@]12[C@@H](c1cccc(F)c1)[C@@H]1CSCN1[C@]21C(=O)Nc2ccccc21`, the IC50 was 15.3 µM in series [16] and 15.7 µM in series [17].

For `O=C1/C(=C/c2ccc(Br)cc2)CCC[C@]12[C@@H](c1ccc(Br)cc1)[C@@H]1CSCN1[C@]21C(=O)Nc2ccccc21`, the IC50 in [16] is 15.3 µM; in series [17], 14.7 µM.

As to `O=C1C2=CC=CC3C=CC=C(C23)C12N[C@@H](Cc1ccc(O)cc1)[C@@H]([N+](=O)[O-])[C@H]2c1ccc(Cl)cc1` (stereo partly specified), the IC50 in series [12] is 40.2 µM; in [14], 33.6 µM.

In the case of `Oc1cc2c(cc1C1CCCCC1)OCO2`, the IC50 in series [22] was found to be 14.7 µM. Moreover, in [23], the IC50 at 24 h is more than 100 µM. Also, the Activity in series [24] came to 25%.

On to `O=C1CCC(=O)N1CN(Cc1ccccc1)Cc1ccccc1`, for which, in series [25], the viability at 100 µg/mL was 72%. In [26], the viability at 50 µg/mL worked out at 78.8%. Moreover, in series [27], the IC50 was 176 µg/mL (≈ 572 µM).

With `O=C(/C=C/c1ccc(O)c(O)c1)N1CCCC1`, the IC50 in series [9] came to 53.5 µg/mL (≈ 229 µM).

For `CC[C@H](C)[C@H](NC(=O)OC(C(F)(F)F)C(F)(F)F)C(=O)N[C@@H](CC(C)C)C(=O)N1CCCC1C(=O)N[C@@H](CC(C)C)C(=O)N[C@H](C(=O)OC)C(C)C` (stereo partly specified) (X1-IL[ξP]LV-OMe), in series [28], the IC50 was 2.73 µM.

On to `CC[C@H](C)[C@@H](CN[C@@H](Cc1ccccc1)C(=O)OC)NC(=O)[C@@H]1CCCN1C(=O)[C@H](CC(C)C)NC(=O)[C@@H]1CCCN1C(=O)[C@H](CC(C)C)NC(=O)OC(C(F)(F)F)C(F)(F)F` (X1-LPLP-X2), for which the IC50 in [28] was found to be 4.3 µM.

Take `COc1cccc2c1C(=O)c1c(O)c3c(c(O)c1C2=O)C[C@@](O)(C(=O)CO)C[C@@H]3O[C@H]1C[C@H](N)[C@H](O)[C@H](C)O1` [DOXORUBICIN]: the IC50 was found to be 4.89 µM in [29], 7.03 µM in series [30] and 5.59 µM in series [31].

For `O=c1[nH]cc(F)c(=O)[nH]1` [FLUOROURACIL], the IC50 stood at 45 µM in series [18], 78.3 µM in series [16], 80.6 µM in series [32] and 45 µM in series [15].
